Test results as given in US20050159460A1, “Peptide isosteres containing a heterocycle useful in the treatment of alzheimer's disease” (Elan Pharmaceuticals, priority 2001, published 2005).

CC(C)(C)OC(=O)[C@@H](C(N)c1ccccc1)[C@@H](O)C[C@@H](Cc1ccccc1)c1ncc2n1C(O)C(C)(C)C2=O (stereo partly drawn) [Example 31, 3-[(1R,3S,4S)-1-benzyl-4-t-butoxycarbonyl-amino-3-hydroxy-5-phenylpentyl]-6,6-dimethyl-5-hydroxy-pyrrolo-[1,2-c]-imidazol-7-one]
melting point: 88 to 90 °C
